Reference: a melting point compilation (Tetko et al.; mined from patent text by program, amines drawn as free bases though some values may be those of a salt)

| Compound | melting point |
| --- | --- |
| CS(=O)(=O)Oc1cc(N)c(F)cc1Cl | 79 to 80 °C |
| COc1cc([C@@H]2SC[C@@H](c3cc(OC)c(O)c(OC)c3)S2)cc(OC)c1O (relative stereo) | 169 to 170 °C |
| CCC1(NC(=O)CCl)COCOC1 | 89 to 95 °C |
| Cc1cc(Oc2ccc(N)cc2C(F)(F)F)n[nH]1 | 143 to 145 °C |
| CNC(=O)c1c(N)cc(Cl)cc1Cl | 159 to 162 °C |
| CCCCC1(N(C)C)CC=C(c2[nH]c3ccccc3c2CCNC(=O)CC(C)(C)C)CC1 (stereo not given) | 139 to 142 °C |
| CCCCCCCCN(C)C(N)=NC#N | 101 to 104 °C |
| CC(=O)OC[C@H]1OCC(=NO)[C@@H](OC(C)=O)[C@@H]1OC(C)=O | 90 to 92 °C |
| CCCc1sc(-c2ccccc2)nc1OC(=O)NC | 55 to 58 °C |
| CC1CCNC(=C2C(=O)CC(C)(C)CC2=O)C1 (stereo not given) | 174 °C |
| COCCOc1ncc(Cl)c(N)c1Cl | 92 to 93.5 °C |
| COc1cc2oc(=O)c(CCO)c(C)c2cc1OC(C)C | 110 to 112 °C |
| CCCCN(CCCC)p1oc2c(C(C)(C)C)cc(C(C)(C)C)cc2c2cc(C(C)(C)C)cc(C(C)(C)C)c2o1 | 140 °C |
| CCCCCCCCCCCCCCOc1ccc(C(=O)OC)cc1Cl | 42 to 43 °C |
| CC1CCOCc2nc3c(N)nc4cc(Br)ccc4c3n21 (stereo not given) | 247 to 248 °C |
| Nc1cccc2cncc(Br)c12 | 155 °C |
| COc1cc(N)c(Cl)cc1C(=O)N[C@H]1CCN(CCO)C[C@H]1OC (relative stereo) | 153 °C |
| CCCN(C(=O)OC(C)(C)C)C1CC=C(c2c[nH]c3cc([N+](=O)[O-])ccc23)CC1 (stereo not given) | 214 to 216 °C |
| Clc1cc(Cl)cc(-c2n[nH]cc2Cl)c1 | 192 °C |
| COc1ccc(NS(=O)(=O)CC(=O)O)cc1[N+](=O)[O-] | 154 to 156 °C |
| Cc1c(Cl)n(C2OC(CO)C(O)C2O)c2cc(Cl)c(Cl)cc12 (stereo not given) | 190 to 191 °C |
| CC(C)(C)c1cc(-c2nnc(N)s2)cc(C(C)(C)C)c1O | 261 °C |
| CS(=O)(=O)Nc1nc(CN2CCC(c3c[nH]c4ccccc34)CC2)cs1 | 215 to 217 °C |

| Compound | melting point |
| --- | --- |
| CN(C(=O)Nc1ccc(Cl)cc1)c1nncs1 | 182 °C |
| Cc1cc(C)nc(Oc2cccc(Oc3ncc(Cl)cn3)c2)n1 | 142 °C |
| CCOC(=O)N1CCN(c2ncnc3[nH]ncc23)CC1 | 245 to 247 °C |
| N#Cc1c(Cl)nc2ccc(S(=O)(=O)Cl)cc2c1Cl | 168 to 171 °C |
| Cc1ccc(S(=O)(=O)OC2=COC2)cc1 | 86 to 88 °C |
| CCCOc1ccc(-c2ccc(Cl)nn2)cc1OC | 132 °C |
| COc1cc(C(C)C#Cc2c(C)nc(N)nc2N)cc(OC)c1OC (stereo not given) | 191 to 193 °C |
| CCSC(=S)SC1NC(=O)C1C(C)C (stereo not given) | 65 to 66 °C |
| COC(=O)c1ccc(SC)c(N)c1 | 63 to 65 °C |
| CC(C)(C)c1cc(C=Cc2n[nH]c(=S)o2)cc(C(C)(C)C)c1O | 210 °C |
| N#Cc1ccsc1S(N)(=O)=O | 152 to 155 °C |
| CCC1CCC2(O)C3CC=C4CC(O)CCC4(C)C3CC(O)C12C (stereo not given) | 228 to 235 °C |
| COc1cc(C(OC(C)=O)C(=O)O)cc(OC)c1OC (stereo not given) | 135 to 139 °C |
| CCOC(=O)CCCCn1c(C)cn(N=Cc2cccnc2)c1=O | 74 to 76 °C |
| CC(=O)c1cc(Br)c(OP(=O)(O)O)c(Br)c1 | 149 to 154 °C |
| O=C(O)c1cc(C(F)(F)F)ccc1Cl | 93 to 94 °C |
| Nc1nc(N)c(-c2ccc(Cl)cc2Cl)c(Cl)n1 | 219 °C |
| CC(=O)OC1CCCCC1n1cnc2cc(Cl)c(Cl)cc21 (stereo not given) | 145 to 147 °C |
| O=Cc1cc2cc(Cl)ccc2nc1Cl | 188 to 190 °C |
| Cc1cccc2c1C(=O)N1CC[C@H]1c1c(C(=O)OC(C)(C)C)ncn1-2 | 191 to 192 °C |
| Cc1cc(Br)ccc1-n1c(CF)nc2ccc(N)cc2c1=O | 194 to 196 °C |
| CC(C)(C)C1Cc2cc(OCC(=O)O)c(Cl)c(Cl)c2C1=O (stereo not given) | 155 to 175 °C |

Results, then the molecule that gave them:

| melting point | Compound |
| --- | --- |
| 223 to 225 °C | Cc1cccc(C)c1-n1cc(C#N)c(=O)n(SC(Cl)(Cl)Cl)c1=O |
| 159 to 161 °C | COc1cccc(Cc2ccccc2)c1C(=O)O |
| 187 to 188 °C | Cc1cc(-c2c(-c3ccc(S(N)(=O)=O)cc3)cnn(-c3cccc(Cl)c3)c2=O)ccc1F |
| 178 °C | COc1cc(-c2nc(NNC(=O)c3cc4c(C)c(C)ccc4n3CCCC#N)nn2CCC2CCCCC2)c(OC)cc1Cl |
| 93 to 94 °C | CC(=O)COc1cc(C)c(Br)c(C)c1Cc1ccc(C(C)C)cc1 |
| 222 to 224 °C | Cn1c(=O)n(CCC[C@@H](NS(=O)(=O)c2ccc(-c3ccccc3)cc2)C(=O)O)c(=O)c2ccccc21 |
| 213 to 214 °C | CC(=O)Nc1c(C(=O)c2ccc(OC(F)(F)F)cc2)[nH]c2cc(Cl)ccc12 |
| 200 to 201 °C | CN1CCN(C2=Nc3ccccc3Nc3cscc32)CC1 |
| 161 to 162 °C | CCCCN(CCCC)c1ccc(C=CC=Cc2ccc(C=CC3=C(C#N)C(=C(C#N)C#N)OC3(C)C(F)(F)F)s2)c(OC)c1 (stereo not given) |
| 206 to 208 °C | Cc1ccc(C(=O)Nc2ccccc2C(N)=O)cc1 |
| 85 to 86 °C | CS(=O)(=O)OCc1cc(OCc2ccccc2)cc(OCc2ccccc2)c1 |
| 148 to 150 °C | O=c1cc(-c2ccncn2)nc2n1CCCCC2 |
| 157 °C | O=c1nc(-c2cccc(CCc3nnn[nH]3)n2)sc2ccccc12 |
| 98 to 101 °C | CCOC(=O)N(c1ccccc1)c1cc(Cl)ccc1N |
| 213 to 214 °C | CNC(=O)Cc1cccc2c(=O)cc(C3=CCCCC3)oc12 |
| 186 to 188 °C | O=C(NNc1ccc(NC(=S)NCc2ccccc2)cc1)c1ccc(F)cc1 |
| 234 to 236 °C | C[C@]12CC[C@H](O)CC1=CCC1C2CC[C@@]2(C)C1CC[C@H]2n1cc(-c2ccccc2)nn1 (stereo not given in full) |
| 147 to 149 °C | OC(c1ccc(Cl)cc1)c1ccc(-n2ccnc2)nc1 (stereo not given) |
| 111 to 113 °C | CC(C)CC1(C(N)C(=O)OC(C)(C)C)CCN(CCc2ccccc2)C1=O (stereo not given) |
| 176 to 178 °C | COc1ccc(-c2nc(C)nn2-c2ccccc2S(N)(=O)=O)cc1OC |
| 175 to 176 °C | CCc1nc2c(cnn2CC)c(NC2CCOCC2)c1CNC(=O)c1cccc(C(=O)NCc2ccc(C)c(Br)c2)c1 |
| 120 °C | COC(=O)C(C)Oc1ccc(N(C)c2nc3cc(Cl)ccc3s2)cc1 (stereo not given) |
| 132 to 133 °C | FC(F)(F)c1ccc(-c2cc(Oc3ccc4cccnc4c3)ncn2)c(OCCN2CCOCC2)c1 |
| 183 to 186 °C | Cc1nc(-n2nnc(C(=O)NCc3ccccc3)c2C)sc1C(=O)NCc1ccccc1 |
| 179 to 181 °C | OCc1ccc2cc(O)ccc2c1 |
| 176 to 178 °C | CN(C)c1cc2c(cc1Cl)NC(=O)CC(c1cccc(-c3csc(CO)n3)c1)=N2 |
| 95 to 97 °C | COc1ccc(N2CCN(CCC(O)COc3ccccc3)CC2)cc1 (stereo not given) |
| 138 to 140 °C | CC(C)(C#N)CNC(=O)c1nn(C2CCCCO2)cc1NC(=O)c1ccccn1 (stereo not given) |

| melting point | Compound |
| --- | --- |
| 136 to 138 °C | C=C1N(c2ccccc2)C(=O)OC12CCN(CCC=C(c1ccc(F)cc1)c1ccc(F)cc1)CC2 |
| 140 to 145 °C | COC(=O)c1ccc(CC(C)N(CC(=O)c2ccc(OCc3ccccc3)c(NC(N)=O)c2)Cc2ccccc2)cc1 (stereo not given) |
| 157 to 160 °C | COc1ccccc1-n1c(=O)[nH]c2c(C(N)=O)nc(N[C@H]3CC[C@H](OC(N)=O)CC3)nc21 |
| 256 to 257 °C | CC(C)(C)OC(=O)Nc1cc(-c2nnc(CCc3cccc(F)c3)o2)ccn1 |
| 187 to 190 °C | COc1ccc(-c2ccc(C(=O)Nc3cc4ncc(CN5CCCC5)cc4cc3C)c(F)c2)cc1 |
| 167 to 168 °C | O=Cc1ccc(OC[C@H]2CCCN2c2ncnc3[nH]cnc23)c2ccccc12 |
| 74 °C | COCCN1CCc2ccc(Nc3ncc(Cl)c(N[C@@H]4CCC[C@H]4NS(C)(=O)=O)n3)cc2CC1 (relative stereo) |
| 198 to 203 °C | NNc1ccnc2c(NC(=O)c3ccccc3[N+](=O)[O-])cccc12 |
| 140 to 144 °C | CC(C)N1CC2(COc3ccc([N+](=O)[O-])cc3OC2)OC1=O (stereo not given) |
| 101 to 104 °C | O=C(c1cccs1)c1cnn2c(-c3cccc(NCC4CCCCC4)c3)ccnc12 |
| 71 to 72 °C | CSc1ccc(C(=O)Cc2ccccc2)cc1F |
| 99 to 103 °C | C/C=C/C(=O)OC(COc1ccc(C(=O)c2ccccc2)c(O)c1)COc1ccc(C(=O)c2ccccc2)c(O)c1 |
| 181 to 185 °C | COc1ccc(C2OCCN2CCNc2ccc(NCCN3CCOC3c3ccc(OC)cc3OC)c3c2C(=O)c2c(O)ccc(O)c2C3=O)c(OC)c1 (stereo not given) |
| 102 to 103 °C | O=C(Nc1cccc(Br)c1)N(Cc1ccccc1)Cc1ccccc1 |
| 159 to 161 °C | COc1ccc2c(c1)C(=O)C(Cc1cccc(N)c1)CC2 (stereo not given) |
| 208 to 210 °C | COc1cccc2c1C(=O)N(C)CC(=O)N2 |
| 88 to 95 °C | COc1cc(C2CCN(CC(N)=O)CC2)ccc1Nc1ncc2ccc(-c3ccccc3OC)n2n1 |
| 181 to 182 °C | CN(c1ccc(CC(=O)O)cc1)c1cc(C(C)(C)C)c(O)c(C(C)(C)C)c1 |
| 199 to 200 °C | COc1ccc(C(=O)Nc2ccc(F)cc2)cc1Nc1cc(C)cc(C)c1 |
| 66 to 68 °C | CCOC(=O)c1ccc(CCCOCCCCCCNCC(O)c2cc(Cl)c(N)c(Cl)c2)cc1 (stereo not given) |
| 155 to 156 °C | Cc1oc(-c2ccccc2)nc1COc1ccc(COc2nn(Cc3ccc(OCc4nc(-c5ccccc5)oc4C)cc3)cc2C=O)cc1 |
| 149 to 154 °C | Nc1ccc2c(ccn2-c2ccncc2)c1 |
| 144 to 146 °C | CCOC(=O)c1cn(C2CC2)c2nc(N3CCC(N)C3)c(F)cc2c1=O (stereo not given) |
| 88 to 90 °C | CCOc1c2ccccc2c(C=O)c2ccccc12 |
| 90 to 93 °C | CCOC(=O)C(Cc1ccc(O)cc1)Oc1ccc(Cl)cc1 (stereo not given) |
| 165 to 166 °C | COc1ccc(NC(=O)N(Cc2ccccc2)Cc2ccccn2)c(NC(=O)c2cc(C(C)(C)C)c(O)c(C(C)(C)C)c2)c1 |
| 144 to 148 °C | COc1cc(OC2CCN(c3c(O)c(=O)c3=O)CC2)ccc1CC(=O)N1CCN(c2ccccc2C)CC1C(N)=O (stereo not given) |
